Experimental data: PubChem BioAssay AID248 (DTP/NCI, 2004)
Values joined by “and” are separate entries in the source; they are usually repeats but may differ in a detail not shown here. Equal values may be shown once. Toxic doses and inconclusive results are not listed. No stated cut-off is given here; in the data, active means T/C of 150% or more; inactive means T/C below 125%.

Tested on: L1210 leukemia ip in BDF1 mice, survival T/C
Test: NCI In Vivo Anticancer Drug Screen. Data for tumor model L1210 Leukemia (intraperitoneal) in B6D2F1 (BDF1) mice
Settings: endpoint: mean survival time, higher = longer survival
How it was run: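 Value reflects the ratio of survival in compound-treated mice to survival in vehicle-treated controls, with both groups carrying the same transplanted tumor.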

[1] = dose: 100.0 mg/kg/injection, schedule: Q01DX001 (ip), vehicle: other
[2] = dose: 100.0 mg/kg/injection, schedule: Q01DX009 (ip), vehicle: saline with Tween-80
[3] = dose: 100.0 mg/kg/injection, schedule: Q01DX001 (ip), vehicle: Klucel (hydroxypropylcellulose) (HPC)
[4] = dose: 100.0 mg/kg/injection, schedule: Q01DX009 (ip), vehicle: Klucel (hydroxypropylcellulose) (HPC)
[5] = dose: 100.0 mg/kg/injection, schedule: Q04DX003 (ip), vehicle: Klucel (hydroxypropylcellulose) (HPC)
[6] = dose: 200.0 mg/kg/injection, schedule: Q01DX001 (ip), vehicle: Klucel (hydroxypropylcellulose) (HPC)
[7] = dose: 200.0 mg/kg/injection, schedule: Q01DX009 (ip), vehicle: Klucel (hydroxypropylcellulose) (HPC)
[8] = dose: 200.0 mg/kg/injection, schedule: Q04DX003 (ip), vehicle: Klucel (hydroxypropylcellulose) (HPC)
[9] = dose: 400.0 mg/kg/injection, schedule: Q01DX001 (ip), vehicle: Klucel (hydroxypropylcellulose) (HPC)
[10] = dose: 400.0 mg/kg/injection, schedule: Q01DX009 (ip), vehicle: Klucel (hydroxypropylcellulose) (HPC)
[11] = dose: 400.0 mg/kg/injection, schedule: Q04DX003 (ip), vehicle: Klucel (hydroxypropylcellulose) (HPC)
[12] = dose: 100.0 mg/kg/injection, schedule: Q01DX001 (ip), vehicle: saline
[13] = dose: 200.0 mg/kg/injection, schedule: Q01DX001 (ip), vehicle: saline
[14] = dose: 100.0 mg/kg/injection, schedule: Q04DX003 (ip), vehicle: saline sonified
[15] = dose: 100.0 mg/kg/injection, schedule: Q01DX001 (ip), vehicle: carboxymethylcellulose (CMC)
[16] = dose: 200.0 mg/kg/injection, schedule: Q01DX001 (ip), vehicle: carboxymethylcellulose (CMC)
[17] = dose: 100.0 mg/kg/injection, schedule: Q04DX003 (ip), vehicle: saline with Tween-80
[18] = dose: 200.0 mg/kg/injection, schedule: Q01DX001 (ip), vehicle: other

Measured: T/C

CN(C)C=Nc1ccc(Cl)cc1
inactive: dose: 25.0 mg/kg/injection, schedule: Q01DX001 (ip), vehicle: other 93 % of control | dose: 50.0 mg/kg/injection, schedule: Q01DX001 (ip), vehicle: other 101 % of control | dose: 50.0 mg/kg/injection, schedule: Q01DX001 (ip), vehicle: saline 100 % of control | dose: 50.0 mg/kg/injection, schedule: Q04DX003 (ip), vehicle: other 90 % of control | [1] 103 % of control and 91 % of control | dose: 100.0 mg/kg/injection, schedule: Q04DX003 (ip), vehicle: other 102 % of control | dose: 200.0 mg/kg/injection, schedule: Q04DX003 (ip), vehicle: other 101 % of control

CCCCOC(=S)SSC(=S)OCCCC
inactive: dose: 25.0 mg/kg/injection, schedule: Q01DX009 (ip), vehicle: saline with Tween-80 97 % of control | dose: 50.0 mg/kg/injection, schedule: Q01DX009 (ip), vehicle: saline with Tween-80 93 % of control | [2] 103 % of control and 104 % of control

CC(C)(C)OC(=O)C(=[N+]=[N-])C(=O)OC(C)(C)C
inactive: [3] 97 % of control | [4] 102 % of control | [5] 98 % of control | [6] 97 % of control | [7] 105 % of control | [8] 104 % of control | [9] 90 % of control | [10] 105 % of control | [11] 104 % of control

N=C(N)c1ccc(N=NNc2ccc(C(=N)N)cc2)cc1 (tested in a mixture with another compound)
inactive: [12] 93 % of control | [13] 98 % of control

CCN(CCN)c1cccc(C)c1
inactive: [14] 92 % of control

CCCNC(=S)Nc1ccccc1
inactive: dose: 75.0 mg/kg/injection, schedule: Q01DX001 (ip), vehicle: other 101 % of control | dose: 150.0 mg/kg/injection, schedule: Q01DX001 (ip), vehicle: other 107 % of control

Nc1nc(Nc2ccc(Cl)c(Cl)c2)cc(=O)[nH]1
inactive: dose: 200.0 mg/kg/injection, schedule: Q01DX Z (ip), vehicle: methylcellulose (MC) 86 % of control

CCCCCn1c(Cl)c(C(=O)O)c2ccccc21
inactive: dose: 25.0 mg/kg/injection, schedule: Q04DX003 (ip), vehicle: Klucel (hydroxypropylcellulose) (HPC) 109 % of control | dose: 50.0 mg/kg/injection, schedule: Q04DX003 (ip), vehicle: Klucel (hydroxypropylcellulose) (HPC) 97 % of control | [5] 102 % of control

CC(C)(C)NC(=O)Nc1nccs1
inactive: dose: 100.0 mg/kg/injection, schedule: Q01DX009 (ip), vehicle: other 100 % of control | dose: 200.0 mg/kg/injection, schedule: Q01DX009 (ip), vehicle: other 107 % of control

CNC(=O)Nc1ccc(C)cc1
inactive: [15] 108 % of control | [16] 111 % of control | dose: 400.0 mg/kg/injection, schedule: Q01DX001 (ip), vehicle: carboxymethylcellulose (CMC) 111 % of control

O=C(Nc1ccc(Cl)cc1)Oc1ccccn1
inactive: [2] 93 % of control | dose: 200.0 mg/kg/injection, schedule: Q01DX009 (ip), vehicle: saline with Tween-80 91 % of control | dose: 400.0 mg/kg/injection, schedule: Q01DX009 (ip), vehicle: saline with Tween-80 91 % of control

N/C(=N\O)c1c(N)ncn1C1OC(CO)C(O)C1O (stereo not given)
inactive: dose: 100.0 mg/kg/injection, schedule: Q01DX005 (ip), vehicle: saline 97 % of control | dose: 200.0 mg/kg/injection, schedule: Q01DX005 (ip), vehicle: saline 100 % of control

Nc1ccc([N+](=O)[O-])cc1N=C/C=C/c1ccccc1
inactive: dose: 50.0 mg/kg/injection, schedule: Q01DX009 (ip), vehicle: Klucel (hydroxypropylcellulose) (HPC) 101 % of control | [4] 96 % of control | [7] 92 % of control

ClC(Cl)(Cl)c1nc2nccnc2[nH]1
inactive: dose: 25.0 mg/kg/injection, schedule: Q04DX003 (ip), vehicle: saline with Tween-80 98 % of control | dose: 50.0 mg/kg/injection, schedule: Q04DX003 (ip), vehicle: saline with Tween-80 97 % of control | [14] 96 % of control | [17] 110 % of control

O=C1OC(=O)C2C(c3ccccc3)C=C(Cl)C(CCCl)C12 (stereo not given)
inactive: [3] 101 % of control | [6] 97 % of control | [9] 95 % of control

CCC(C)(C)c1cccc(C(=O)O)c1O
inactive: [15] 104 % of control | [16] 93 % of control

OC1CC2(Cl)C(Cl)=C(Cl)C1(Cl)C2(Cl)Cl (stereo not given)
inactive: dose: 75.0 mg/kg/injection, schedule: Q01DX001 (ip), vehicle: carboxymethylcellulose (CMC) 87 % of control | dose: 150.0 mg/kg/injection, schedule: Q01DX001 (ip), vehicle: carboxymethylcellulose (CMC) 95 % of control | dose: 300.0 mg/kg/injection, schedule: Q01DX001 (ip), vehicle: carboxymethylcellulose (CMC) 93 % of control

CC(C)OP(=O)(NC12CC3CC(CC(C3)C1)C2)OC(C)C
inactive: [4] 103 % of control | [5] 95 % of control | [7] 100 % of control | [8] 96 % of control | [10] 90 % of control | [11] 100 % of control

CC1=C2[C@H]3OC(=O)[C@H](C)[C@@H]3CC[C@@]2(C)C=CC1=O
inactive: [1] 103 % of control | [18] 95 % of control

CNC(=O)C1C2C=CC(CC2)C1C(=O)NC (stereo not given)
inactive: [17] 108 % of control | dose: 200.0 mg/kg/injection, schedule: Q04DX003 (ip), vehicle: saline with Tween-80 100 % of control | dose: 400.0 mg/kg/injection, schedule: Q04DX003 (ip), vehicle: saline with Tween-80 100 % of control

COc1cc(/C=C\C(=O)O)cc(Cl)c1O
inactive: dose: 50.0 mg/kg/injection, schedule: Q01DX009 (ip), vehicle: saline + alcohol 94 % of control | dose: 100.0 mg/kg/injection, schedule: Q01DX009 (ip), vehicle: saline + alcohol 101 % of control | dose: 200.0 mg/kg/injection, schedule: Q01DX009 (ip), vehicle: saline + alcohol 105 % of control

O=C(c1ccccc1)C(C(NC1CCCCC1)c1ccccc1)N1CCCCC1 (stereo not given)
inactive: [3] 95 % of control | [6] 92 % of control | [9] 92 % of control

COc1cc2c(cc1OC)C(CN)C2 (stereo not given)
inactive: dose: 50.0 mg/kg/injection, schedule: Q01DX009 (ip), vehicle: saline 101 % of control | dose: 100.0 mg/kg/injection, schedule: Q01DX009 (ip), vehicle: saline 103 % of control | dose: 100.0 mg/kg/injection, schedule: Q04DX003 (ip), vehicle: saline 116 % of control | dose: 200.0 mg/kg/injection, schedule: Q01DX009 (ip), vehicle: saline 89 % of control | dose: 200.0 mg/kg/injection, schedule: Q04DX003 (ip), vehicle: saline 119 % of control

CSc1nc(SCc2ccccc2)[nH]c(=O)n1
inactive: dose: 100.0 mg/kg/injection, schedule: Q04DX002 (ip), vehicle: saline with Tween-80 98 % of control | dose: 200.0 mg/kg/injection, schedule: Q04DX002 (ip), vehicle: saline with Tween-80 117 % of control | dose: 400.0 mg/kg/injection, schedule: Q04DX002 (ip), vehicle: saline with Tween-80 98 % of control

Cc1ccccc1S(=O)(=O)Cc1cc(Cl)cc(Cl)c1O
inactive: [12] 90 % of control | [13] 88 % of control | dose: 400.0 mg/kg/injection, schedule: Q01DX001 (ip), vehicle: saline 97 % of control

Brc1cccc[n+]1CCC[n+]1ccccc1Br
inactive: dose: 2.2 mg/kg/injection, schedule: Q01DX Z (ip), vehicle: saline 93 % of control | dose: 3.3 mg/kg/injection, schedule: Q01DX Z (ip), vehicle: saline 87 % of control | dose: 5.0 mg/kg/injection, schedule: Q01DX Z (ip), vehicle: saline 98 % of control

CC1(C)OCC(C2OC(N)C(O)C2O)O1 (stereo not given)
inactive: dose: 100.0 mg/kg/injection, schedule: Q04DX002 (ip), vehicle: saline 94 % of control | dose: 200.0 mg/kg/injection, schedule: Q04DX002 (ip), vehicle: saline 97 % of control | dose: 400.0 mg/kg/injection, schedule: Q04DX002 (ip), vehicle: saline 102 % of control

COc1ccc2nccc(C(=O)CCC3CCN(C(=O)c4ccc([N+](=O)[O-])cc4)CC3C(CBr)CCBr)c2c1 (stereo not given)
inactive: [1] 104 % of control | [18] 88 % of control | dose: 400.0 mg/kg/injection, schedule: Q01DX001 (ip), vehicle: other 111 % of control
